Measurements: ChEMBL document CHEMBL4177694, “Discovery of the first low-shift positive allosteric modulators for the muscarinic M1 receptor” (Bioorg Med Chem Lett, 2017)
Active and inactive are the calls of the source. The calls are words filed in the database; no cut-off is given here.

Tests used:
[1] = target: T1, Muscarinic acetylcholine receptor M1 (Homo sapiens, UniProt P11229); test: Positive allosteric modulation of human wild type M1 receptor assessed as increase in acetylcholine-induced calcium flux by FLIPR assay; type: functional
T1 sequence (P11229 whole entry): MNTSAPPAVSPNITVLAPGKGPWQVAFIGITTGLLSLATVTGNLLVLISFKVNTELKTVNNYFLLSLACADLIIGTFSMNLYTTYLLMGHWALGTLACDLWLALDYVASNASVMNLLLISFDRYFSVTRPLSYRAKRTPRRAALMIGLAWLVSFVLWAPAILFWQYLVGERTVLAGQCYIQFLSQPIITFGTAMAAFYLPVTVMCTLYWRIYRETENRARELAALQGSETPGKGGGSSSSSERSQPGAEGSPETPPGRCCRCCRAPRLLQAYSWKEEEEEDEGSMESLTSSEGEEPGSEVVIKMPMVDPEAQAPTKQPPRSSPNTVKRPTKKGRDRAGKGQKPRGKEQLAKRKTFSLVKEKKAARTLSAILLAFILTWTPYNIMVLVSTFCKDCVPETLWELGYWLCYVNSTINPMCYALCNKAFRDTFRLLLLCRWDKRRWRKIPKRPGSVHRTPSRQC

[2] = target: Muscarinic acetylcholine receptor M5 (Homo sapiens, UniProt P08912); test: Positive allosteric modulation of M5 receptor (unknown origin); type: functional
Muscarinic acetylcholine receptor M5, sequence (P08912 whole entry): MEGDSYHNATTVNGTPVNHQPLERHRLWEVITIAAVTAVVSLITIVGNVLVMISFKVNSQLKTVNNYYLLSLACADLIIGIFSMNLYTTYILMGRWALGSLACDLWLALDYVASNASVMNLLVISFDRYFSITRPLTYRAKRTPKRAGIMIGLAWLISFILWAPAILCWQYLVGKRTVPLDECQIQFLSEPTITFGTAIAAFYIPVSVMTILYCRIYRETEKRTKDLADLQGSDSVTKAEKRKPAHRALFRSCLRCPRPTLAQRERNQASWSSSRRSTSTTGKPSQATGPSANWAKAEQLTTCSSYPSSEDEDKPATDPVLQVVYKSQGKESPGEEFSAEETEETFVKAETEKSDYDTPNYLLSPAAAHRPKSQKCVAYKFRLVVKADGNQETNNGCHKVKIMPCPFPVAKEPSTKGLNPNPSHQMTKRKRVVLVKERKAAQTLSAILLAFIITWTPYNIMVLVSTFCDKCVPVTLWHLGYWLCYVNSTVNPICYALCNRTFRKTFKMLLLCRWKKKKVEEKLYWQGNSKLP

[3] = target: T2, Muscarinic acetylcholine receptor M1 (Homo sapiens) (UniProt P11229); test: Receptor occupancy at M1 receptor (unknown origin) at EC50
T2 sequence (whole entry): T1 sequence (P11229 whole entry)

[4] = target: Muscarinic acetylcholine receptor M5 (Homo sapiens) (UniProt P08912); test: Positive allosteric modulation of M5 receptor (unknown origin) relative to control; type: functional
Muscarinic acetylcholine receptor M5 (Homo sapiens), sequence (P08912 whole entry): as above

[5] = target: Muscarinic acetylcholine receptor M2 (Homo sapiens) (UniProt P08172); test: Positive allosteric modulation of M2 receptor (unknown origin); type: functional
Muscarinic acetylcholine receptor M2 (Homo sapiens), sequence (P08172 whole entry): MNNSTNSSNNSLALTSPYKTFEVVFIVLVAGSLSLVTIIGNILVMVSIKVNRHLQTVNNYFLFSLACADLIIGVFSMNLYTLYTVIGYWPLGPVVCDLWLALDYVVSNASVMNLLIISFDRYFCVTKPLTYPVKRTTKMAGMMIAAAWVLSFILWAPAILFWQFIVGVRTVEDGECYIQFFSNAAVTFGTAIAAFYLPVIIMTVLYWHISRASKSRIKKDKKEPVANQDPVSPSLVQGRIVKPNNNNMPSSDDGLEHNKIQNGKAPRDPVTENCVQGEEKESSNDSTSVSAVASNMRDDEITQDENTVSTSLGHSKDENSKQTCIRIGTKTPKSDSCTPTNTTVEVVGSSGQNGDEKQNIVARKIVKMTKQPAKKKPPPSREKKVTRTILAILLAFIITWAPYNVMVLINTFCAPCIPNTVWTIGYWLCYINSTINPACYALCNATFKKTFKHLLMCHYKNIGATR

[6] = target: Muscarinic acetylcholine receptor M3 (Homo sapiens) (UniProt P20309); test: Agonist activity at M3 receptor (unknown origin) up to 10 uM; type: functional
Muscarinic acetylcholine receptor M3 (Homo sapiens), sequence (P20309 whole entry, looked up): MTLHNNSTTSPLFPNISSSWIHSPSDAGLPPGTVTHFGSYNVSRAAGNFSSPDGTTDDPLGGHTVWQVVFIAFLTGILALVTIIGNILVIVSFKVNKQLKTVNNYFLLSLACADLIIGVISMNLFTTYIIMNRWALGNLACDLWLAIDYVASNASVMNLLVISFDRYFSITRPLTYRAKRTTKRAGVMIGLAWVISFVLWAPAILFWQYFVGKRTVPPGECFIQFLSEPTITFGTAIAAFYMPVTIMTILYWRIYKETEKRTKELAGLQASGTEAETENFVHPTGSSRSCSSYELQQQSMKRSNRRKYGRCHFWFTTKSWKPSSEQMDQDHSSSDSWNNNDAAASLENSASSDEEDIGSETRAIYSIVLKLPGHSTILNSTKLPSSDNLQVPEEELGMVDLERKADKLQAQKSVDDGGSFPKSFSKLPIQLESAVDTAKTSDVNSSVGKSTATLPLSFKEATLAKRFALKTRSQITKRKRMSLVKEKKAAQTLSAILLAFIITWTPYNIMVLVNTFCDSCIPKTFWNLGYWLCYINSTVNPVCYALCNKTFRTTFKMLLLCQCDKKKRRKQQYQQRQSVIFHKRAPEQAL

[7] = target: Muscarinic acetylcholine receptor M2 (Homo sapiens) (UniProt P08172); test: Agonist activity at M2 receptor (unknown origin) up to 10 uM; type: functional
[8] = tested on: Muscarinic acetylcholine receptor M1 (Homo sapiens), P11229 [Y179A,W400A]; test: Positive allosteric modulation of M1 receptor Y179A/W400A mutant (unknown origin) relative to control
Muscarinic acetylcholine receptor M1 (Homo sapiens), P11229 [Y179A,W400A], sequence (P11229 whole entry Y179A/W400A): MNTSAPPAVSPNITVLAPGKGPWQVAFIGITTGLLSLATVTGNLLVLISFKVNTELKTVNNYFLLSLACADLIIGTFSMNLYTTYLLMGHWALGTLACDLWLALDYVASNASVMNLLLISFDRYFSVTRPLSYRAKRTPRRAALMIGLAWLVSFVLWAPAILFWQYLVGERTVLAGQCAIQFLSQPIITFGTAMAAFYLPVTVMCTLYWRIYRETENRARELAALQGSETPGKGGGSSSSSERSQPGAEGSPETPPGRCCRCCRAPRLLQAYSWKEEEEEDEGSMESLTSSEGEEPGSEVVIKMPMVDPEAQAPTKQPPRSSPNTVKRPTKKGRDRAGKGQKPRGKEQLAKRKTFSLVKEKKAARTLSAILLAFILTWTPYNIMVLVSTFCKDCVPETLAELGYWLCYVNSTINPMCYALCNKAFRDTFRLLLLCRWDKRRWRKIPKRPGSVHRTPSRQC

[9] = target: Muscarinic acetylcholine receptor M1 (Rattus norvegicus, UniProt P08482); test: Positive allosteric modulation of rat M1 receptor assessed as increase in acetylcholine-induced calcium flux by FLIPR assay; type: functional
Muscarinic acetylcholine receptor M1 (Rattus norvegicus, UniProt P08482), sequence (P08482 whole entry): as the sequence (P11229 whole entry Y179A/W400A) above, with A5V, A179Y, T254S, P309S, R320K, A337G, A400W, I413V counted along it

[10] = target: T2, Muscarinic acetylcholine receptor M1 (Homo sapiens); test: Agonist activity at M1 receptor (unknown origin) up to 10 uM; type: functional
[11] = target: T2, Muscarinic acetylcholine receptor M1 (Homo sapiens); test: Positive allosteric modulation of human wild type M1 receptor assessed as increase in acetylcholine-induced calcium flux by FLIPR assay relative to acetylcholine; type: functional
[12] = target: Muscarinic acetylcholine receptor M1 (Rattus norvegicus) (UniProt P08482); test: Positive allosteric modulation of rat M1 receptor assessed as increase in acetylcholine-induced calcium flux by FLIPR assay relative to acetylcholine; type: functional
Muscarinic acetylcholine receptor M1 (Rattus norvegicus), sequence (P08482 whole entry): as the sequence (P11229 whole entry Y179A/W400A) above, with A5V, A179Y, T254S, P309S, R320K, A337G, A400W, I413V counted along it

[13] = target: Muscarinic acetylcholine receptor M5 (Homo sapiens) (UniProt P08912); test: Agonist activity at M5 receptor (unknown origin) up to 10 uM; type: functional
[14] = target: Muscarinic acetylcholine receptor M1 (Homo sapiens, UniProt P11229, W400A/Y179A); test: Positive allosteric modulation of M1 receptor Y179A/W400A mutant (unknown origin)
Muscarinic acetylcholine receptor M1 (Homo sapiens, UniProt P11229, W400A/Y179A), sequence (P11229 whole entry Y179A/W400A): as the sequence (P11229 whole entry Y179A/W400A) above

[15] = target: T2, Muscarinic acetylcholine receptor M1 (Homo sapiens); test: Antagonist activity at M1 receptor (unknown origin); type: functional
[16] = target: Muscarinic acetylcholine receptor M4 (Homo sapiens) (UniProt P08173); test: Agonist activity at M4 receptor (unknown origin) up to 10 uM; type: functional
Muscarinic acetylcholine receptor M4 (Homo sapiens), sequence (P08173 whole entry): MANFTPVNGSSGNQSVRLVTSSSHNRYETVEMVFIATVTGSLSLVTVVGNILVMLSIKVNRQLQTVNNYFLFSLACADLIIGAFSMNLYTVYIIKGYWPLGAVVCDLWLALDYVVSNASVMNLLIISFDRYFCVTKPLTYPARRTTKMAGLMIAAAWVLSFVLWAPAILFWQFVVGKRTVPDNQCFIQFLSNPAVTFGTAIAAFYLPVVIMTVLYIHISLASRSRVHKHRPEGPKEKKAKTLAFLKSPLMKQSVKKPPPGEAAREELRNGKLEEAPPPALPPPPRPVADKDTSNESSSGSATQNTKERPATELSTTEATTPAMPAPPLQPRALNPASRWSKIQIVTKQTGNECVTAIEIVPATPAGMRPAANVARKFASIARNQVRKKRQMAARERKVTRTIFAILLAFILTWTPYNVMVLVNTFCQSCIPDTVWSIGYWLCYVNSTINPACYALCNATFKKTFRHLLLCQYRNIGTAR

`CC(C)[C@@H]1N=C(c2ccccc2F)c2cc(Cl)ccc2NC1=S` gave an EC50 [1] of 80 nM, an EC50 [2] of 1300 nM and an Occ [3] of 33%. The Emax [4] was 70%, the Activity [5] was “inactive” and the Activity [6] was “inactive”. The Activity [7] was “inactive”, the Emax [8] was 80% and the EC50 [9] was 218 nM. The Activity [10] was “inactive”, the Emax [11] was 78% and the Emax [12] was 88%. For the same compound, the Activity [13] was “inactive”, the EC50 [14] was 178 nM and the Kb [15] was 610 nM. The Activity [16] was “inactive”.
